According to PubChem BioAssay AID1963959 (Molecular Pharmacology Branch, DTP, NCI, 2024):
pIC50: −log10 of the molar value.

Tested on: T-47D spheroids with HUVEC/MSC, viability
Test: Anticancer human tumor T-47D cell line growth inhibition [PI3K];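 note: spheroids exposed to agents for seven days before reading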;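 for viability, T/C: percent of DMSO vehicle control luminescence so 100% = untreated growth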
Details: for pIC50: curve of first compound; for viability, T/C: stronger effect = lower value
Method in brief: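 Viability of mixed-cell spheroids was determined after exposure to pairwise combinations, one partner being inavolisib, alpelisib, duvelisib or copanlisib. Highest tested concentration matched clinical Cmax where known and 10 microM where not, descending in half-log steps.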

[1] = second compound 0.0316 µM, first compound 0.0316 µM
[2] = second compound 0.0316 µM, first compound 0.1 µM
[3] = second compound 0.0316 µM, first compound 0.316 µM
[4] = second compound 0.0316 µM, first compound 1 µM
[5] = second compound 0.0316 µM, first compound 3.16 µM
[6] = second compound 0.0316 µM, first compound 10 µM
[7] = second compound 0.1 µM, first compound 0.0316 µM
[8] = second compound 0.1 µM, first compound 0.1 µM
[9] = second compound 0.1 µM, first compound 0.316 µM
[10] = second compound 0.1 µM, first compound 1 µM
[11] = second compound 0.1 µM, first compound 3.16 µM
[12] = second compound 0.1 µM, first compound 10 µM
[13] = second compound 0.316 µM, first compound 0.0316 µM
[14] = second compound 0.316 µM, first compound 0.1 µM
[15] = second compound 0.316 µM, first compound 0.316 µM
[16] = second compound 0.316 µM, first compound 1 µM
[17] = second compound 0.316 µM, first compound 3.16 µM
[18] = second compound 0.316 µM, first compound 10 µM
[19] = second compound 1 µM, first compound 0.0316 µM
[20] = second compound 1 µM, first compound 0.1 µM
[21] = second compound 1 µM, first compound 0.316 µM
[22] = second compound 1 µM, first compound 1 µM
[23] = second compound 1 µM, first compound 3.16 µM
[24] = second compound 1 µM, first compound 10 µM
[25] = second compound 0.00316 µM, first compound 0.0316 µM
[26] = second compound 0.00316 µM, first compound 0.1 µM
[27] = second compound 0.00316 µM, first compound 0.316 µM
[28] = second compound 0.00316 µM, first compound 1 µM
[29] = second compound 0.00316 µM, first compound 3.16 µM
[30] = second compound 0.00316 µM, first compound 10 µM
[31] = second compound 0.01 µM, first compound 0.0316 µM
[32] = second compound 0.01 µM, first compound 0.1 µM
[33] = second compound 0.01 µM, first compound 0.316 µM
[34] = second compound 0.01 µM, first compound 1 µM
[35] = second compound 0.01 µM, first compound 3.16 µM
[36] = second compound 0.01 µM, first compound 10 µM

CC1(C)CCC(CN2CCN(c3ccc(C(=O)NS(=O)(=O)c4ccc(NCC5CCOCC5)c([N+](=O)[O-])c4)c(Oc4cnc5[nH]ccc5c4)c3)CC2)=C(c2ccc(Cl)cc2)C1 + CC(Nc1ncnc2nc[nH]c12)c1cc2cccc(Cl)c2c(=O)n1-c1ccccc1
pIC50 (second compound 0.0316 µM): < 5.00 | pIC50 (second compound 0.1 µM): < 5.00 | pIC50 (second compound 0.316 µM): < 5.00 | pIC50 (second compound 1 µM): < 5.00 | pIC50 (second compound 3.16 µM): < 5.00 | pIC50 (second compound 10 µM): < 5.00 | viability, T/C [1]: 120% | viability, T/C [2]: 75.2% | viability, T/C [3]: 85.7% | viability, T/C [4]: 80.9% | viability, T/C [5]: 81% | viability, T/C [6]: 79.5% | viability, T/C [7]: 110% | viability, T/C [8]: 96% | viability, T/C [9]: 99.5% | viability, T/C [10]: 83.7% | viability, T/C [11]: 89.6% | viability, T/C [12]: 83.6% | viability, T/C [13]: 88.5% | viability, T/C [14]: 101% | viability, T/C [15]: 86% | viability, T/C [16]: 89.7% | viability, T/C [17]: 85.3% | viability, T/C [18]: 81% | viability, T/C [19]: 96.9% | viability, T/C [20]: 93.4% | viability, T/C [21]: 91% | viability, T/C [22]: 80.3% | viability, T/C [23]: 77.1% | viability, T/C [24]: 79.2% | viability, T/C (second compound 3.16 µM, first compound 0.0316 µM): 91.6% | viability, T/C (second compound 3.16 µM, first compound 0.1 µM): 88.9% | viability, T/C (second compound 3.16 µM, first compound 0.316 µM): 97.3% | viability, T/C (second compound 3.16 µM, first compound 1 µM): 95.5% | viability, T/C (second compound 3.16 µM, first compound 3.16 µM): 87.3% | viability, T/C (second compound 3.16 µM, first compound 10 µM): 66.8% | viability, T/C (second compound 10 µM, first compound 0.0316 µM): 96.5% | viability, T/C (second compound 10 µM, first compound 0.1 µM): 94.4% | viability, T/C (second compound 10 µM, first compound 0.316 µM): 88.8% | viability, T/C (second compound 10 µM, first compound 1 µM): 89% | viability, T/C (second compound 10 µM, first compound 3.16 µM): 86.1% | viability, T/C (second compound 10 µM, first compound 10 µM): 79.8%

C[C@@H](NC(=O)c1ncnc(N)c1Cl)c1ncc(C(=O)Nc2cc(C(F)(F)F)c(Cl)cn2)s1 + CC(Nc1ccc2c(c1)OCCn1cc(N3C(=O)OCC3C(F)F)nc1-2)C(N)=O
pIC50 (second compound 0.00316 µM): < 5.00 | pIC50 (second compound 0.01 µM): < 5.00 | pIC50 (second compound 0.0316 µM): < 5.00 | pIC50 (second compound 0.1 µM): < 5.00 | pIC50 (second compound 0.316 µM): < 5.00 | pIC50 (second compound 1 µM): < 5.00 | viability, T/C [25]: 110% | viability, T/C [26]: 92.2% | viability, T/C [27]: 87.9% | viability, T/C [28]: 79.2% | viability, T/C [29]: 94.5% | viability, T/C [30]: 99.3% | viability, T/C [31]: 104% | viability, T/C [32]: 85.3% | viability, T/C [33]: 87.4% | viability, T/C [34]: 83.3% | viability, T/C [35]: 113% | viability, T/C [36]: 101% | viability, T/C [1]: 95.2% | viability, T/C [2]: 87.3% | viability, T/C [3]: 83.8% | viability, T/C [4]: 86.2% | viability, T/C [5]: 91.4% | viability, T/C [6]: 94.7% | viability, T/C [7]: 79.8% | viability, T/C [8]: 82% | viability, T/C [9]: 83.3% | viability, T/C [10]: 97.1% | viability, T/C [11]: 97.4% | viability, T/C [12]: 94.4% | viability, T/C [13]: 69.4% | viability, T/C [14]: 79.6% | viability, T/C [15]: 75.2% | viability, T/C [16]: 69.8% | viability, T/C [17]: 71.8% | viability, T/C [18]: 74.3% | viability, T/C [19]: 52.9% | viability, T/C [20]: 53.4% | viability, T/C [21]: 65% | viability, T/C [22]: 57.9% | viability, T/C [23]: 62.3% | viability, T/C [24]: 65.8%

Cn1nccc1Nc1nccc(-c2ccn(C(CO)c3ccc(Cl)c(F)c3)c(=O)c2)n1 (stereo unspecified) + COc1c(OCCCN2CCOCC2)ccc2c3n(c(=NC(=O)c4cnc(N)nc4)nc12)CCN3
pIC50 (second compound 0.00316 µM): < 5.00 | pIC50 (second compound 0.01 µM): < 5.00 | pIC50 (second compound 0.0316 µM): < 5.00 | pIC50 (second compound 0.1 µM): > 7.50 | pIC50 (second compound 0.316 µM): > 7.50 | pIC50 (second compound 1 µM): > 7.50 | viability, T/C [25]: 107% | viability, T/C [26]: 94% | viability, T/C [27]: 94.2% | viability, T/C [28]: 102% | viability, T/C [29]: 99.9% | viability, T/C [30]: 104% | viability, T/C [31]: 104% | viability, T/C [32]: 88% | viability, T/C [33]: 107% | viability, T/C [34]: 83.6% | viability, T/C [35]: 103% | viability, T/C [36]: 86.4% | viability, T/C [1]: 70% | viability, T/C [2]: 72.3% | viability, T/C [3]: 70.1% | viability, T/C [4]: 77% | viability, T/C [5]: 67.5% | viability, T/C [6]: 69.6% | viability, T/C [7]: 40.9% | viability, T/C [8]: 39.7% | viability, T/C [9]: 38.3% | viability, T/C [10]: 48.5% | viability, T/C [11]: 46.6% | viability, T/C [12]: 48.2% | viability, T/C [13]: 20.7% | viability, T/C [14]: 20.4% | viability, T/C [15]: 17.8% | viability, T/C [16]: 24.5% | viability, T/C [17]: 20.7% | viability, T/C [18]: 22.7% | viability, T/C [19]: 8.45% | viability, T/C [20]: 6.31% | viability, T/C [21]: 9.37% | viability, T/C [22]: 7.73% | viability, T/C [23]: 9.27% | viability, T/C [24]: 7.43%
